Laboratory results: US20200108066A1, “METHODS FOR MODULATING REGULATORY T CELLS AND IMMUNE RESPONSES USING CDK4/6 INHIBITORS” (Dana-Farber Cancer Institute, Inc., priority 2017, published 2020)

Columns and labels:
[1] = system: MDA-MB-453 cells; test: Expression analysis (transcriptome, qPCR, Western blot, ELISA) in MDA-MB-453 cells treated in vitro; assay type: cell-based, human; details: SASP gene, abemaciclib 500 nM, 7 days, relative to DMSO
[2] = system: thymocytes; test: Thymic mass and thymic cell populations in tumor-free FVB mice; assay type: in vivo, mouse; details: 12 days
Description: FIG. 10 includes 9 panels, identified as panels A, B, C, D, E, F, G, H, and I, which show the impact of CDK4/6 inhibition on immune cell populations and Treg biology. […] Panel C compares thymic mass with or without abemaciclib/palbociclib treatment. Thymic cell populations were quantified by flow cytometry.
Following mechanical digestion and RBC lysis, single cell suspensions were blocked with anti-CD16/32 for 20 minutes on ice. Cells were incubated with appropriate antibodies for 30 minutes on ice.
Murine antibodies used for flow cytometry include those recognizing CD45 (clone 30-F11), CD3 (clone 145-2C11), CD8 (clone 53-6.7), CD4 (clone RM4-5), PD-1 (clone 29F.1A12), Tim-3 (clone RMT3-23), CTLA-4 (clone UC10-4B9), LAG-3 (clone C9B7W), B220 (clone RA3-6B2), NK1.1 (clone PK136), CD11b (clone M1/70), Ly6G (clone 1A8), Ly6C (clone AL-21), FoxP3 (clone FJK-16s), and Ki-67 (clone 16A8). Human antibodies used for flow cytometry were those recognizing β2-microglobulin (clone 2M2) and HLA-A, B, C (clone W6/32). Antibodies were purchased from Biolegend with the exception of anti-FoxP3 from eBioscience and anti-Ly6C from BD Pharmigen. All antibodies used for flow cytometry were directly conjugated to fluorophores. […] Flow cytometry was performed on a LSRII (BD Biosciences, San Jose, Calif.) or FACSCANTOII (BD Biosciences), and data was analyzed using FlowJo® (TreeStar).

[3] = system: MMTV-rtTA/tetO-HER2 tumors; test: Combined abemaciclib and anti-PD-L1 therapy in MMTV-rtTA/tetO-HER2 tumor bearing mice; assay type: in vivo, mouse
Description: After 3 days, the dose was dropped to 75 mg/kg daily and treatment with an anti-PD-L1 antibody (200 μg by intraperitoneal injection every 72 hours; BioXcell, clone 10F.9G2) or an isotype control antibody (200 μg by intraperitoneal injection every 72 hours) was commenced. Mice were euthanized using CO2 inhalation, and all mouse experiments were performed in accordance with protocols approved by the Institutional Animal Care and Use Committees of Dana-Farber Cancer Institute, Harvard Medical School, and Boston Children's Hospital.

[4] = system: MMTV-rtTA/tetO-HER2 tumors; test: Tumor growth in MMTV-rtTA/tetO-HER2 transgenic mice; assay type: in vivo, mouse; details: bulky tumors growing prior to treatment; three independent experiments
Description: Tumor formation was induced in MMTV-rtTA/tetO-HER2 mice with doxycycline as previously described in Goel et al. (2016) Cancer Cell 29:255-269. Female FVB mice (7 weeks of age) were purchased from Taconic Biosciences (Hudson, N.Y.). Female J:NU nude mice (8 weeks of age) were purchased from Jackson Labs (Bar Harbor, Me.). FVB CD45.2+ mice used as a source of T cells for in vitro studies were a kind gift from Dr. Daniel Tenen. For tumor growth studies in J:NU mice, MMTV-rtTA/tetO-HER2 tumor explants were orthotopically implanted bilaterally into nude mice, as previously described in Goel et al. (2016), supra. […] For tumor experiments in transgenic MMTV-rtTA/tetO-HER2 mice, tumors measured between 5 mm and 15 mm when treatment was begun. Mice were assigned into treatment groups so that the distribution of tumor volumes was even between groups. Tumor volume was calculated as previously described in Goel et al. (2016), supra and tumors were measured by caliper 2-3 times per week. For tumor growth curve analysis, one-way ANOVA tests were performed with correction for multiple comparisons using Sidak's multiple comparisons test. […]

[5] = system: MMTV-rtTA/tetO-HER2 tumors; test: Gene expression (transcriptome, qPCR) in MMTV-rtTA/tetO-HER2 tumor tissue; assay type: in vivo, mouse
[6] = Plasma autoantibody ELISAs (anti-ANA, anti-dsDNA); assay type: in vivo, mouse; details: tumor-free and tumor-bearing mice, 12 days
Description: For the last 24 hours, the culture media was replaced with serum free media. Following concentration of conditioned media using Amicon® Ultra centrifugal filters (Millipore, Billerica, Mass.), cytokines were analyzed according to the manufacturer's recommendations using the following kits: human IFN gamma ELISA Ready-SET-Go!® (Affymetrix eBioscience), human TNF alpha ELISA Ready-SET-Go!® (Affymetrix eBioscience), Verikine human IFN alpha ELISA kit (PBL assay science, Piscataway, N.J.), VeriKine-HS human IFN beta serum ELISA kit (PBL assay science), human IL-28B quantikine ELISA kit (R&D Systems, Minneapolis, Minn.), human […] Systems), and human IL-29 DuoSet ELISA (R&D Systems). Anti-ANA and anti-dsDNA ELISAs (Alpha Diagnostic, San Antonio, Tex.) were performed according to the manufacturer's instructions on plasma isolated from tumor free or tumor-bearing mice. Absorbance was measured on a SynergyTM Neo plate reader (BioTek, Winooski, Vt.) using Gen5TM software.

[7] = system: tumor-infiltrating CD8+ and CD4+ T cells; test: Inhibitory co-receptor expression on intratumoral T cells (flow cytometry); assay type: in vivo, mouse
Description: Tumors were first mechanically disrupted by chopping, then chemically digested in dissociation buffer (2 mg/mL collagenase type IV (Worthington Biochemical, Lakewood, N.J.), 0.02 mg/mL DNase (Sigma Aldrich) in DMEM (Life Technologies) containing 5% FBS (Life Technologies), PenStrep (Hyclone)) with agitation at 37° C. for 45 minutes. After RBC lysis, single cell suspensions were blocked with anti-CD16/32 for 20 minutes on ice. Then, cells were incubated with the appropriate antibodies for 30 minutes on ice.
Murine antibodies used for flow cytometry include those recognizing CD45 (clone 30-F11), CD3 (clone 145-2C11), CD8 (clone 53-6.7), CD4 (clone RM4-5), PD-1 (clone 29F.1A12), Tim-3 (clone RMT3-23), CTLA-4 (clone UC10-4B9), LAG-3 (clone C9B7W), B220 (clone RA3-6B2), NK1.1 (clone PK136), CD11b (clone M1/70), Ly6G (clone 1A8), Ly6C (clone AL-21), FoxP3 (clone FJK-16s), and Ki-67 (clone 16A8). Human antibodies used for flow cytometry were those recognizing β2-microglobulin (clone 2M2) and HLA-A, B, C (clone W6/32). Antibodies were purchased from Biolegend with the exception of anti-FoxP3 from eBioscience and anti-Ly6C from BD Pharmigen. All antibodies used for flow cytometry were directly conjugated to fluorophores. The anti-mouse/rat FoxP3 staining set (eBioscience) was used for intracellular staining according to the manufacturer's instructions. 7AAD was used to distinguish live/dead cells, except for analyses requiring intracellular staining when eFluor® 450 fixable viability dye (eBioscience) or Zombie Yellow™ fixable viability dye (Biolegend) were used. To determine the absolute number of cells in a sample, CountBright™ absolute counting beads (Molecular Probes, ThermoFisher) were added. Flow cytometry was performed on a LSRII (BD Biosciences, San Jose, Calif.) or FACSCANTOII (BD Biosciences), and data was analyzed using FlowJo® (TreeStar).
Furthermore, the mRNA level of Ifng (the main effector cytokine of cytotoxic T cells) was more than 4-fold higher in treated bulk tumor tissue (FIG. 13D).

[8] = system: MDA-MB-453 and BT474 cells; test: Doxorubicin-induced senescence; assay type: cell-based, human; details: doxorubicin 200 nM 24 h, RNA 72 hours later
Description: MDA-MB-453 and BT474 cells were treated with doxorubicin (Sigma Aldrich, 200 nM) for a period of 24 hrs. The cells were then cultured in fresh media for 72 hours after treatment, and RNA was extracted for qPCR.

Compound	Fold change (abema vs DMSO treatment): COL1A1 [1] [fold]	total thymic mass [2]	average reduction in tumor volume at day 13 of treatment [3] [%]	average reduction in tumor volume at the 12-day end point [4] [%]	Fold change (abema vs DMSO treatment): COL1A1 ([5]; SASP gene, MMTV-rtTA/tetO-HER2 tumors, abemaciclib 12 days, relative to vehicle) [fold]	mRNA level of Ifng in bulk tumor tissue, treated vs vehicle ([5]; qPCR)	autoimmune phenotype: anti-nuclear antibody (ANA) or anti-dsDNA antibody levels [6]	fractions of PD-1high and PD-1+/TIM-3+ cytotoxic T cells ([7]; 6 days treatment vs vehicle)	number of inhibitory receptors detected on any given cytotoxic T cell ([7]; 6 days treatment vs vehicle)	reduction of PD-1+/TIM-3+ cytotoxic T cell fraction ([7]; 6 days treatment vs vehicle) [%]	CD8+ cells expressing none of the inhibitory receptors ([7]; abemaciclib treated tumors, 6 days)	beta galactosidase and interleukin-6 expression [8]
CCN1CCN(Cc2ccc(Nc3ncc(F)c(-c4cc(F)c5nc(C)n(C(C)C)c5c4)n3)nc2)CC1 [abemaciclib]	0.752	significantly reduced	35	40	1.207	more than 4 fold	No associated increases	significantly reduced	lower	50	over 50%	
COc1cccc2c1C(=O)c1c(O)c3c(c(O)c1C2=O)C[C@@](O)(C(=O)CO)C[C@@H]3O[C@H]1C[C@H](N)[C@H](O)[C@H](C)O1 [doxorubicin]												increased
CC(=O)c1c(C)c2cnc(Nc3ccc(N4CCNCC4)cn3)nc2n(C2CCCC2)c1=O [palbociclib]		significantly reduced										
